According to article PMC8213153 (PLoS ONE, 2021):
Values after ≈ are worked out from the molar mass of the structure shown. Read-outs that look alike come from different tables or passages of the source.

Experiments:
Format in all cases: cell-based
SARS-CoV-2 virus = assay: microbe, parasite or virus in culture; conditions: for IC50: Severe acute respiratory syndrome coronavirus 2, Vero
IL-10 = IL-10 level of virus-infected Vero cells (ELISA)
Experimental: (§1) To enable measurement of IL-6, IL-10 and TNF-α levels, the culture medium of the treated cells was collected in sterile micro-tubes and centrifuged at 3,500 rpm for 20 minutes. The supernatants were carefully collected and diluted with aquadest at a 1:5 volume ratio and vortexed until homogenous. The samples were deposited onto a well-plate, added to ELISA reagents (Bioassay Technology Laboratory, Shanghai, China), and incubated at 37°C for 60 minutes. Reagent substrate solution was then added to the well and incubated for ten minutes at 37°C. The samples were measured for antigen concentration using the optical density (OD) plotted into the standard curves of IL-6, IL-10, and TNF-α.

TNF-α = TNF-α level of virus-infected Vero cells (ELISA)
Experimental: as §1

IL-6 = IL-6 level of virus-infected Vero cells (ELISA)
Experimental: as §1

[1] = Cytotoxicity (MTT) assay of single and dual combinatory drugs; conditions: human
Experimental: Each tablet containing drugs was triturated and mixed until homogenous. Approximately 50 mg equivalent mass of drugs were weighed and added to dimethyl sulfoxide in order to solubilize the drugs. The suspension was sonicated in a water bath for 15 minutes before being added to Rosewell Park Memorial Institute (RPMI) media, sonicated again and vortexed to mix it until homogenous. The suspension was then filtered through a polycarbonate membrane with a pore size of 0.45 μm and then a pore size of 0.22 μm under aseptic conditions. The filtrate was mixed with 10% foetal bovine serum and penicillin streptomycin before being vortexed to produce a homogenous mixture to be used as a stock solution. The samples were prepared by diluting the stock solution of each drug with RPMI complete media at an appropriate level of dilution to produce a determined concentration. The dual combinatory drugs mixtures were prepared by mixing appropriate amounts of two drug stock solutions in order to produce a final concentration at the required level. The combinatory drugs were evaluated at both constant and non-constant ratios to evaluate their effects on the cytotoxicity, including; antagonistic, synergistic, or additive. A constant ratio of the mixture was achieved by adding drug solutions at the same ratio, thereby increasing each drug concentration, to produce dose escalation. In contrast, at a non-constant ratio, a fixed determined concentration of drug was added to increased doses of other drug solution in order to produce different levels of drug concentration.
The cytotoxic concentration (CC50) of drugs was performed by means of MTT assay at the Stem Cell Research and Development Center, Universitas Airlangga using human umbilical cord mesenchymal stem cells which had been obtained from human placenta tissue as approved by the Ethical Committee of Universitas Airlangga Hospital (Certificate number 101/KEH/2019 dated January 10, 2019). The cells were prepared as the primary cell culture and used for the cytotoxicity assay because of their sensitivity to chemicals. Cells were seeded into 96-well microplates at a concentration of 1x10^3 cells/well in 100 μL Alpha Minimum Essentials Medium (α-MEM, Gibco, USA) supplemented with 10% foetal bovine serum, 1% penicillin-streptomycin and 1% amphotericin-B. The plates were then incubated in a CO2 incubator at 37°C with 5% CO2 for 24 hours, at which point, the supernatant was replaced with α-MEM containing drugs at each concentration and incubated for a further 48 hours. Approximately 25μL of 3-(4,5-Dimethylthiazol-2-yl)-2,5-diphenyl tetrazolium-bromide (MTT) reagent at a concentration of 5mg/mL was subsequently added to each well and incubated for four hours at 37°C with 5% CO2. Purple formazan crystals were formed and observed under an inverted microscope. Dimethyl sulfoxide was added to each well with the complete solubilisation of formazan crystals subsequently being observed. The greater the number of formazan crystals formed, the lower the toxicity of the samples which were read for optical density of formazan using a multi reader at a measurement wavelength of 595 nm (Promega Glomax, USA). The CC50 value was analyzed by CompuSyn software (the ComboSyn Inc., accessed from www.combosyn.com).
In this study, the cytotoxicity assay was evaluated for single and dual combinatory drugs during a period of 48 hours of drug incubation. This assay was intended to evaluate the toxicity of dual combinatory drugs on normal cells. The combination ratios were calculated taking into consideration the usual therapeutic doses and plasma peak concentrations of the drugs. To determine this cytotoxicity, the drugs were mixed at both constant and non-constant ratios.

[2] = FAVIPIRAVIR-AZITHROMYCIN series, read-out: Cell Viability (%)
[3] = HYDROXYCHLOROQUINE-AZITHROMYCIN series, read-out: Cell Viability (%)
[4] = LOPIRITO-AZITHROMYCIN series, read-out: Viability Cell (%)
[5] = HYDROXYCHLOROQUINE-DOXYCYCLINE series, read-out: Cell viability (%)
[6] = LOPIRITO-DOXYCYCLINE series, read-out: Cell Viability (%)

In the case of CC[C@H]1OC(=O)[C@H](C)[C@@H](O[C@H]2C[C@@](C)(OC)[C@@H](O)[C@H](C)O2)[C@H](C)[C@@H](O[C@@H]2O[C@H](C)C[C@H](N(C)C)[C@H]2O)[C@](C)(O)C[C@@H](C)CN(C)[C@H](C)[C@@H](O)[C@]1(C)O [AZI, Azithromycin], the “Virus Titer” value (SARS-CoV-2 virus; 15 μg/mL, 24-h) is reported as 38.18 viral protein fg/mL, the “Virus Titer” value (SARS-CoV-2 virus; 62.5 μg/mL, 48-h) is reported as 38.78 viral protein fg/mL and the IC50 (SARS-CoV-2 virus; 24h, MoI 0.04) is reported as 51.9 µg/mL (≈ 69.3 µM). For the same compound, the IC50 (SARS-CoV-2 virus; 48h, MoI 0.04) was 19.6 µg/mL (≈ 26.2 µM), the IC50 (SARS-CoV-2 virus; 72h, MoI 0.04) was less than 10 µg/mL and the IL-10 (IL-10; 15 μg/mL, 24-h) was 32.78 ± 1.18 pg/mL. For the same compound, the IL-10 (IL-10; 15 μg/mL, 48-h) was 152.34 ± 1.72 pg/mL, the IL-10 (IL-10; 15 μg/mL, 72-h) was 609.92 ± 1.48 pg/mL and the IL-10 (IL-10; 15 μg/mL, 24h) was “↗↗ (15 μg/mL; 24h)”. For the same compound, the IL-10 (IL-10; 62.5 μg/mL, 24-h) was 53.50 ± 1.85 pg/mL, the IL-10 (IL-10; 62.5 μg/mL, 48-h) was 91.92 ± 1.45 pg/mL and the “IL-10 levels (in words)” value (IL-10; Table 5) was “increased”. The TNF-α (TNF-α; 15 μg/mL, 24-h) was 6.994 ± 1.32 pg/mL, the TNF-α (TNF-α; 15 μg/mL, 48-h) was 478 ± 1.50 pg/mL and the TNF-α (TNF-α; 15 μg/mL, 72-h) was 777.34 ± 1.67 pg/mL. The TNF-α (TNF-α; 62.5 μg/mL, 24-h) was 86.00 ± 2.84 pg/mL, the TNF-α (TNF-α; 62.5 μg/mL, 48-h) was 381.30 ± 1.28 pg/mL and the TNF-α (TNF-α; 62.5 μg/mL, 72-h) was 641.33 ± 0.00 pg/mL. For the same compound, the TNF-α (TNF-α; 24, 48, and 72 hours, cell without concentration) was “No effects”, the “TNF-α levels (in words)” value (TNF-α; Table 5) was “no effects” and the IL-6 (IL-6; 15 μg/mL, 24-h) was 14.55 ± 2.22 ng/L. For the same compound, the IL-6 (IL-6; 15 μg/mL, 72-h) was 565.92 ± 0.00 ng/L, the IL-6 (IL-6; 62.5 μg/mL, 24-h) was 15.92 ± 0.57 ng/L and the IL-6 (IL-6; 62.5 μg/mL, 48-h) was 33.47 ± 3.98 ng/L. The IL-6 (IL-6; 62.5 μg/mL, 72-h) was 529.11 ± 0.95 ng/L, the “IL-6 (in words)” value (IL-6; Table 5) was “reduced” and the viability at 48 h, 0.2 μg/mL [1, 2] was 115%. It also gave a viability at 48 h, 2 μg/mL [1, 2] of 107%, a viability at 48 h, 10 μg/mL [1, 2] of 110% and a viability at 48 h, 100 μg/mL [1, 2] of 139%. It also gave a viability at 48 h, 400 μg/mL [1, 2] of 90.9%, a viability at 48 h, 2 μg/mL [1, 3] of 94.2% and a viability at 48 h, 10 μg/mL [1, 3] of 104%. It also gave a viability at 48 h, 100 μg/mL [1, 3] of 110%, a viability at 48 h, 400 μg/mL [1, 3] of 68.9% and a viability at 48 h, 0.2 μg/mL [1, 4] of 84.7%. The viability at 48 h, 2 μg/mL [1, 4] was 81.2%, the viability at 48 h, 10 μg/mL [1, 4] was 84.6% and the viability at 48 h, 100 μg/mL [1, 4] was 89.5%. For the same compound, the viability at 48 h, 400 μg/mL [1, 4] was 81.2%.

In the case of C[C@H]1c2cccc(O)c2C(=O)C2=C(O)[C@]3(O)C(=O)C(C(N)=O)=C(O)[C@@H](N(C)C)[C@@H]3[C@@H](O)[C@@H]21 [DOXY, Doxycycline], the “Virus Titer” value (SARS-CoV-2 virus; 1 μg/mL, 24-h) is reported as 38.42 viral protein fg/mL, the “Virus Titer” value (SARS-CoV-2 virus; 15 μg/mL, 24-h) is reported as 36.90 viral protein fg/mL and the “Virus Titer” value (SARS-CoV-2 virus; 15 μg/mL, 48-h) is reported as 37.85 viral protein fg/mL. The “Virus Titer” value (SARS-CoV-2 virus; 15 μg/mL, 72-h) was 39.15 viral protein fg/mL, the “Drug concentration that produced an undetected virus copy number” value (SARS-CoV-2 virus; MoI 0.04, at 24, 48, and/or 72 hours' incubation) was 37.5 µg/mL and the IC50 (SARS-CoV-2 virus; 24h, MoI 0.04) was 18 µg/mL (≈ 40.5 µM). For the same compound, the IC50 (SARS-CoV-2 virus; 48h, MoI 0.04) was 4.7 µg/mL (≈ 10.6 µM), the IC50 (SARS-CoV-2 virus; 72h, MoI 0.04) was 0.4 µg/mL (≈ 0.9 µM) and the “Results (virus detection)” value (SARS-CoV-2 virus; at the drug concentration of the same line of Table 4, MoI 0.04) was 24, 48, 72h virus undetected. The IL-10 (IL-10; 1 μg/mL, 24-h) was 35.31 ± 0.22 pg/mL, the IL-10 (IL-10; 1 μg/mL, 48, 72h) was “↗↗ (1 μg/mL; 48, 72h)” and the IL-10 (IL-10; 1 μg/mL, 48-h) was 219.74 ± 0.08 pg/mL. It also gave an IL-10 (IL-10; 1 μg/mL, 72-h) of 415.82 ± 0.23 pg/mL, an IL-10 (IL-10; 15 μg/mL, 24-h) of 35.31 ± 1.53 pg/mL and an IL-10 (IL-10; 15 μg/mL, 48-h) of 219.74 ± 1.41 pg/mL. The IL-10 (IL-10; 15 μg/mL, 72-h) was 702.97 ± 0.07 pg/mL, the TNF-α (TNF-α; 1 μg/mL, 24-h) was 1.98 ± 0.00 pg/mL and the TNF-α (TNF-α; 1 μg/mL, 48-h) was 408.19 ± 0.77 pg/mL. For the same compound, the TNF-α (TNF-α; 1 μg/mL, 72-h) was 511.16 ± 3.09 pg/mL, the TNF-α (TNF-α; 1 μg/mL, 24h) was “↘↘ (1 μg/mL; 24h)” and the TNF-α (TNF-α; 15 μg/mL, 24-h) was 1.98 ± 0.84 pg/mL. It also gave a TNF-α (TNF-α; 15 μg/mL, 48-h) of 408.19 ± 0.84 pg/mL, a TNF-α (TNF-α; 15 μg/mL, 72-h) of 529.12 ± 0.46 pg/mL and an IL-6 (IL-6; 1 μg/mL, 24-h) of 21.06 ± 1.43 ng/L. The IL-6 (IL-6; 1 μg/mL, 48-h) was 36.93 ± 0.93 ng/L, the IL-6 (IL-6; 1 μg/mL, 72-h) was 40.56 ± 0.56 ng/L and the IL-6 (IL-6; 1 μg/mL, 24h) was “↘↘ (1 μg/mL; 24h)”. The IL-6 (IL-6; 15 μg/mL, 24-h) was 13.34 ± 0.86 ng/L, the IL-6 (IL-6; 15 μg/mL, 48-h) was 37.98 ± 0.94 ng/L and the IL-6 (IL-6; 15 μg/mL, 72-h) was 43.01 ± 0.05 ng/L. It also gave a viability at 48 h, 0.2 μg/mL [1, 5] of 96.9%, a viability at 48 h, 2 μg/mL [1, 5] of 112% and a viability at 48 h, 10 μg/mL [1, 5] of 117%. For the same compound, the viability at 48 h, 100 μg/mL [1, 5] was 120%, the viability at 48 h, 400 μg/mL [1, 5] was 96.5% and the CC50 at 48 h ([1]; LOPIRITO-DOXY experiment (Fig 6), 48 hours, CompuSyn, n = 3, read-out: CC50) was 16.5 mg/mL. For the same compound, the viability at 48 h, 0.2 μg/mL [1, 6] was 103%, the viability at 48 h, 2 μg/mL [1, 6] was 104% and the viability at 48 h, 10 μg/mL [1, 6] was 105%. It also gave a viability at 48 h, 100 μg/mL [1, 6] of 92.8% and a viability at 48 h, 400 μg/mL [1, 6] of 91.7%.
